Experimental data reported in US20060100284A1, “Growth promotor” (priority 2002, published 2006).

Columns and labels:
[1] = system: weaned pigs and growing swine; test: Swine feeding test with feed additives; type: in vivo
Description: The composition of the invention was tested using weaned pigs and growing swine. The test comprised a total of 240 swine from 30 different litters. […] The composition of the invention was compared to a control without additives and to an antibiotic feed additive (Avilamycin) at the weaning and growth stage.

[2] = system: weaned pigs and swine grown for pork meat; details: Partanen et al. 2002; cited from earlier work
slaughter animals = details: Kirchgessner et al. 1995; cited from earlier work
[3] = Growth and final growth stage, additive in feed (6 g/kg for acids)
[4] = Weaning stage, additive in feed (8 g/kg for acids)

Compound | Daily growth [1, 3] | Final weight [1, 3] | Daily growth [1, 4] | Final weight [1, 4] | growth promoter effect in feed [2] | increase in weight of slaughter animals (slaughter animals)
O=CO [F, formic acid] | 869 g/day | 106.0 kg | 308 g/day | 18.5 kg | acts as a growth promoter | –
C/C=C/C=C/C(=O)O [sorbic acid] | – | – | – | – | – | enhanced
avilamycin | 845 g/day | 107.1 kg | 335 g/day | 19.3 kg | – | –
